BigSolDB 2.1

CC(C)(OOC(C)(C)c1ccccc1)c1ccccc1
solubility (mole fraction)
Details	274.15 K	278.15 K	282.15 K	286.15 K	290.15 K	294.15 K	298.15 K	302.15 K
in DMF	0.152	0.196	0.246	0.305	0.365	0.44	0.518	0.619
in ethanol	0.0152	0.0188	0.0236	0.0303	0.0418	0.0573	0.0851	0.142
in isopropanol	0.0132	0.0168	0.0219	0.0291	0.0398	0.0567	0.0859	0.143
in methanol	0.00668	0.00933	0.0118	0.0154	0.02	0.0283	0.0395	0.0602
in n-butanol	0.0241	0.0317	0.0407	0.0541	0.07	0.0974	0.144	0.237
in n-propanol	0.019	0.0253	0.0317	0.0425	0.0568	0.0783	0.118	0.194
in sec-butanol	0.0161	0.0208	0.0275	0.036	0.0486	0.0724	0.107	0.183
